According to patent US11077206B2, “Composition for gene therapy or transfection, and preparation method and use thereof” (SHANGHAI CHANGZHENG HOSPITAL, priority 2017, dated 2021):

System: Hela-luci cells
Assay: cytotoxicity in Hela-luci cells by MTT method
Format: cell-based
Conditions: 24 hours, siRNA (and cationic polymer where named) at transfection concentration, EGCG dose well above the transfection dose
Experimental: (§1) A method for studying the cytotoxicity of the natural polyphenol EGCG in the present invention comprises steps of: incubating Hela-luci cells in a 96-well plate at a cell density of 10^4 cells/well, removing a medium after incubation for 12 hours, and adding 100 μl fresh medium containing the siRNA whose concentration is the same as transfection concentration and a certain amount of EGCG, where the concentration of EGCG is from low to high (comprising the transfection concentration), and a final concentration is much higher than the transfection concentration; culturing for 24 hours, and measuring cytotoxicity by a MTT method.
as §1, with “polyphenol EGCG and cationic polymer LPEI in the” for “polyphenol EGCG in the”, “the siRNA and LPEI whose concentration” for “the siRNA whose concentration”, “MTT method. […]” for “MTT method.”

O=C(O[C@@H]1Cc2c(O)cc(O)cc2O[C@@H]1c1cc(O)c(O)c(O)c1)c1cc(O)c(O)c(O)c1 [EGCG]
cell viability: more than 90%
